According to ChEMBL document CHEMBL1138223, “Synthesis of low-hemolytic antimicrobial dehydropeptides based on gramicidin s” (2006):
≈ marks a conversion by molar mass, not a printed value. Calls of active or inactive are those of the source. No cut-off for these calls is given here. Numbered stars: 1 amine (or outer) side, 2 acyl side, 3 side chain; on linkers, the order of the positions; unused ones are H or OH. Square brackets hold non-standard residues; d marks the D form. Peptide text beside a SMILES is read from it. X1 = O=C(/C(=C/c1cccnc1)N[*:1])[*:2]; X2 = O=C(/C(=C/c1ccccc1)N[*:1])[*:2]; Orn = NCCC[C@H](N)C(=O)O

Tests used:
Staphylococcus aureus = assay: Antimicrobial activity against Staphylococcus aureus 209P by liquid broth method; type: functional
Escherichia coli = assay: Antimicrobial activity against Escherichia coli K12 W3110 by liquid broth method; type: functional
Erythrocyte = assay: Induction of human erythrocyte hemolysis; type: functional, cell-based

Row | SMILES | MIC (Staphylococcus aureus) [µg/mL] | MIC (Escherichia coli) [µg/mL] | Activity (Erythrocyte)
1 | CC(C)C[C@@H]1NC(=O)[C@H](CCCN)NC(=O)[C@H](C(C)C)NC(=O)[C@@H]2CCCN2C(=O)[C@@H](Cc2cccnc2)NC(=O)[C@H](CC(C)C)NC(=O)[C@H](CCCN)NC(=O)[C@H](C(C)C)NC(=O)[C@@H]2CCCN2C(=O)[C@@H](Cc2cccnc2)NC1=O | 64 (≈ 56 µM) | 64 (≈ 56 µM) | inactive
2 | CC(C)C[C@@H]1NC(=O)[C@H](CCCN)NC(=O)[C@H](C(C)C)NC(=O)[C@@H]2CCCN2C(=O)/C(=C/c2cccnc2)NC(=O)[C@H](CC(C)C)NC(=O)[C@H](CCCN)NC(=O)[C@H](C(C)C)NC(=O)[C@@H]2CCCN2C(=O)/C(=C/c2cccnc2)NC1=O (cyclo(L[X1]PV[Orn]L[X1]PV[Orn])) | 8 (≈ 7.02 µM) | 32 (≈ 28.1 µM) | –
3 | CC(C)C[C@@H]1NC(=O)[C@H](CCCN)NC(=O)[C@H](C(C)C)NC(=O)[C@@H]2CCCN2C(=O)[C@@H](Cc2ccc(O)cc2)NC(=O)[C@H](CC(C)C)NC(=O)[C@H](CCCN)NC(=O)[C@H](C(C)C)NC(=O)[C@@H]2CCCN2C(=O)[C@@H](Cc2ccc(O)cc2)NC1=O (cyclo(L[dY]PV[Orn]L[dY]PV[Orn])) | 4 (≈ 3.41 µM) | 32 (≈ 27.3 µM) | –
4 | CC(C)C[C@@H]1NC(=O)[C@H](CCCN)NC(=O)[C@H](C(C)C)NC(=O)[C@@H]2CCCN2C(=O)[C@@H](Cc2ccccc2)NC(=O)[C@H](CC(C)C)NC(=O)[C@H](CCCN)NC(=O)[C@H](C(C)C)NC(=O)[C@@H]2CCCN2C(=O)[C@@H](Cc2ccccc2)NC1=O [GRAMICIDIN S] (cyclo(L[dF]PV[Orn]L[dF]PV[Orn])) | 4 (≈ 3.5 µM) | 16 (≈ 14 µM) | –

More lines, in order of falling MIC (Staphylococcus aureus), values ahead:

Row | MIC (Staphylococcus aureus) [µg/mL] | MIC (Escherichia coli) [µg/mL] | SMILES | Activity (Erythrocyte)
5 | 4 (≈ 3.51 µM) | 32 (≈ 28.1 µM) | CC(C)C[C@@H]1NC(=O)[C@H](CCCN)NC(=O)[C@H](C(C)C)NC(=O)[C@@H]2CCCN2C(=O)/C(=C/c2ccccc2)NC(=O)[C@H](CC(C)C)NC(=O)[C@H](CCCN)NC(=O)[C@H](C(C)C)NC(=O)[C@@H]2CCCN2C(=O)/C(=C/c2cccnc2)NC1=O (cyclo(L[X2]PV[Orn]L[X1]PV[Orn])) | –
6 | 4 (≈ 3.52 µM) | 32 (≈ 28.1 µM) | CC(C)C[C@@H]1NC(=O)[C@H](CCCN)NC(=O)[C@H](C(C)C)NC(=O)[C@@H]2CCCN2C(=O)/C(=C/c2ccccc2)NC(=O)[C@H](CC(C)C)NC(=O)[C@H](CCCN)NC(=O)[C@H](C(C)C)NC(=O)[C@@H]2CCCN2C(=O)/C(=C/c2ccccc2)NC1=O (cyclo(L[X2]PV[Orn]L[X2]PV[Orn])) | –
